Like-named read-outs stand apart in the source and are kept apart here.
Assays:
[1] = molecular target: human RORγt ligand binding domain (RORγt LBD) (Homo sapiens (Human), UniProt P51449); experiment: RORγt ThermoFluor® assay (thermal shift binding); conditions: read-out: ThermoFluor® Assay, Kd
Excerpt: ThermoFluor® is a fluorescence based assay that estimates ligand binding affinities by measuring the effect of a ligand on protein thermal stability (Pantoliano, M. W., Petrella, E. C., Kwasnoski, J. D., Lobanov, V. S., Myslik, J., Graf, E., Carver, T., Asel, E., Springer, B. A., Lane, P., and Salemme, F. R. (2001) High-density miniaturized thermal shift assays as a general strategy for drug discovery. J Biomol Screen 6, 429-40, and Matulis, D., Kranz, J. K., Salemme, F. R., and Todd, M. J. (2005) Thermodynamic stability of carbonic anhydrase: measurements of binding affinity and stoichiometry using ThermoFluor. Biochemistry 44, 5258-66). This approach is applicable to a wide variety of systems, and rigorous in theoretical interpretation through quantitation of equilibrium binding constants (KD).
The shift in the melting point described as a ΔTm is proportional to the concentration and affinity of the ligand. The compound potency may be compared as a rank order of either ΔTm values at a single compound concentration or in terms of KD values, estimated from concentration response curves.
RORγt ThermoFluor® Assay Construct
For the RORγt construct used in the ThermoFluor® assay, numbering for the nucleotide sequences was based on the reference sequence for human RORγt, transcript variant 2, NCBI Accession: NM_001001523.1 (SEQ ID NO:1). Nucleotides 850-1635 (SEQ ID NO:2) coding for the wild type human RORγt ligand binding domain (RORγt LBD) were cloned into the pHIS1 vector, a modified pET E. coli expression vector (Accelagen, San Diego), containing an in-frame N-terminal His-tag and a TurboTEV protease cleavage site (ENLYFQG, SEQ ID NO:3) upstream of the cloned insert sequence. The amino acid sequence for the RORγt construct used in the Thermofluor® assay is shown as SEQ ID NO:4.
ThermoFluor® experiments were carried out using instruments owned by Janssen Research and Discovery, L.L.C. through its acquisition of 3-Dimensional Pharmaceuticals, Inc. 1,8-ANS (Invitrogen) was used as a fluorescent dye. Protein and compound solutions are dispensed into black 384-well polypropylene PCR microplates (Abgene) and overlayed with silicone oil (1 μL, Fluka, type DC 200) to prevent evaporation.
Bar-coded assay plates are robotically loaded onto a thermostatically controlled PCR-type thermal block and then heated at a typical ramp-rate of 1° C./min for all experiments. Fluorescence was measured by continuous illumination with UV light (Hamamatsu LC6) supplied via fiber optic and filtered through a band-pass filter (380-400 nm; >6 OD cutoff). Fluorescence emission of the entire 384-well plate was detected by measuring light intensity using a CCD camera (Sensys, Roper Scientific) filtered to detect 500±25 nm, resulting in simultaneous and independent readings of all 384 wells. Images were collected at each temperature, and the sum of the pixel intensity in a given area of the assay plate was recorded versus temperature. Reference wells contained RORγt without compounds, and the assay conditions were as follows: • 0.065 mg/mL RORγt • 60 μM 1,8-ANS • 100 mM Hepes, pH 7.0 • 10 mM NaCl • 2.5 mM GSH • 0.002% Tween-20
Project compounds were arranged in a pre-dosed mother plate (Greiner Bio-one) wherein compounds are serially diluted in 100% DMSO by 1:2 from a high concentration of 10 mM over 12 columns within a series (column 12 is a reference well containing DMSO, no compound). The compounds were robotically dispensed directly into assay plates (×=46 nL) using a Hummingbird capillary liquid handling instrument (Digilab). Following compound dispense, protein and dye in buffer was added to achieve the final assay volume of 3 μL, followed by 1 μL of silicone oil.

[2] = molecular target: full-length human RORγt (Homo sapiens (Human), UniProt P51449); experiment: RORγt (full-length human) reporter assay, Conditions B or C; type: cell-based; conditions: for RORγt (FL) Reporter Assay B or C, % inhibition (value marked *): marked *: footnote not given; for inhibition at 3 µM: at 3 μM compound concentration
Chain of full-length human RORγt (P51449 other isoform, or with tags, fused parts or gaps): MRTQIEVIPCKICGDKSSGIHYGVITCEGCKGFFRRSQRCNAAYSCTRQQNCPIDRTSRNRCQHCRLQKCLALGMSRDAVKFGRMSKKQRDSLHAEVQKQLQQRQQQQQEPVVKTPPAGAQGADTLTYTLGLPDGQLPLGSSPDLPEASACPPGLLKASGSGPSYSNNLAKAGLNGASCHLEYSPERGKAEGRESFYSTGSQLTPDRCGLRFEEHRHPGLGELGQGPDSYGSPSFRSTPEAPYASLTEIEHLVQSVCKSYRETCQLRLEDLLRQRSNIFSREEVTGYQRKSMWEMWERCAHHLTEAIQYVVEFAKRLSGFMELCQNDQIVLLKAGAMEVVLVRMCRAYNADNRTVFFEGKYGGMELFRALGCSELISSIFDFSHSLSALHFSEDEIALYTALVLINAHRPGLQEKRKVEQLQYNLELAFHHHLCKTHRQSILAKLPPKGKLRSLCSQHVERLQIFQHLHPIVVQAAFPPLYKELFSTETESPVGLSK
Summary of the method: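 Readout is dual luciferase: firefly (GAL4-driven) normalized to DMSO-only and saturating-reference controls, then to CMV-Renilla. Full-length human RORγt fused to GAL4-DBD was transiently expressed in HEK293T; compound exposure ran overnight (16-20 h) starting 4-6 h after transfection, final FBS 1.3%, DMSO 0.1%.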

[3] = Conditions B or C, read-out: RORγt (FL) Reporter Assay B or C, IC50
[4] = read-out: RORγt (FL) Reporter Assay B or C, % inhibition
[5] = read-out: RORγt (FL) Reporter Assay B or C, IC50
[6] = RORγt (FL) Reporter Assay B or C, IC50

Chain of human RORγt ligand binding domain (RORγt LBD) (P51449 other isoform, or with tags, fused parts or gaps): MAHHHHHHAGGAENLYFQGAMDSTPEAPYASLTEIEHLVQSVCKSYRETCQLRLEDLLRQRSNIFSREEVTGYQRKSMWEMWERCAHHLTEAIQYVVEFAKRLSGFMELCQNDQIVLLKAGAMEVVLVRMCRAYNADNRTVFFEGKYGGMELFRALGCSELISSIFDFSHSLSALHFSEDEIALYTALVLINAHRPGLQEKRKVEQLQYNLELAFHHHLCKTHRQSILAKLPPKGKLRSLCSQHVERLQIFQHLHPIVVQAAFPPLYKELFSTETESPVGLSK

Kd [1] [nM] | RORγt (FL) Reporter Assay B or C, % inhibition (value marked *) ([2]; Conditions B or C) | IC50 [2, 3] [µM] | inhibition at 3 µM [2, 4] [%] | IC50 [2, 5] [µM] | Compound | other results
3.6 | 105* % | 0.024 | – | – | CC[C@@H](Nc1cc(C(F)F)c(-c2sc(C(=O)N[C@@H]3COC[C@H]3O)nc2C(=O)N2CCC[C@@H]2C)cn1)C(F)(F)F [Example 204, 5-(4-(Difluoromethyl)-6-(((1R)-1-(trifluoromethyl)propyl)amino)-3-pyridyl)-N-((3R,4S)-4-hydroxytetrahydrofuran-3-yl)-4-((2S)-2-methylpyrrolidine-1-carbonyl)thiazole-2-carboxamide] | –
1.9 | – | – | 122 | 0.0046 | C[C@H]1CCCN1C(=O)c1nc(C(=O)N[C@@H]2CCOC2)sc1-c1cnc(NC(C)(C)C)cc1C(F)(F)F [Example 373, 5-[6-(tert-Butylamino)-4-(trifluoromethyl)-3-pyridyl]-4-[(2S)-2-methylpyrrolidine-1-carbonyl]-N-[(3R)-tetrahydrofuran-3-yl]thiazole-2-carboxamide] | –
4.9 | – | – | 110 | 0.016 | C[C@H]1CCCN1C(=O)c1nc(C(=O)NCC(C)(C)O)sc1-c1cnc(N[C@@H]2CCCC2(F)F)cc1C(F)(F)F (single isomer, unassigned) [Example 280, 5-(6-(((R*)-2,2-Difluorocyclopentyl)amino)-4-(trifluoromethyl)pyridin-3-yl)-N-(2-hydroxy-2-methylpropyl)-4-((S)-2-methylpyrrolidine-1-carbonyl)thiazole-2-carboxamide] | –
3.8 | – | – | 83 | 0.073 | CC[C@H](CO)NC(=O)c1nc(C(=O)N2CCC[C@@H]2C)c(-c2cnc(N[C@@H](C)C(F)(F)F)cc2C(F)F)s1 [Example 408, 5-[4-(Difluoromethyl)-6-[[(1S)-2,2,2-trifluoro-1-methyl-ethyl]amino]-3-pyridyl]-N-[(1R)-1-(hydroxymethyl)propyl]-4-[(2S)-2-methylpyrrolidine-1-carbonyl]thiazole-2-carboxamide] | –
120 | – | 0.22 | – | – | C[C@H]1CCN1C(=O)c1nc(C(=O)NCC(C)(C)O)sc1-c1cnc(NC2CCCCC2)cc1C(F)(F)F [Example 25, (S)-5-(6-(Cyclohexylamino)-4-(trifluoromethyl)pyridin-3-yl)-N-(2-hydroxy-2-methylpropyl)-4-(2-methylazetidine-1-carbonyl)thiazole-2-carboxamide] | inhibition at 6 µM ([2]; read-out: RORγt (FL) Reporter Assay B or C, % inhibition @ 6 μM, Conditions B or C, @ 6 μM): 102%
1.1 | 107* % | 0.012 | – | – | C[C@H]1CCCN1C(=O)c1nc(C(=O)NCC(C)(C)O)sc1-c1cnc(NC(C2CC2)C2CC2)cc1C(F)(F)F [Example 139, (S)-5-(6-((Dicyclopropylmethyl)amino)-4-(trifluoromethyl)pyridin-3-yl)-N-(2-hydroxy-2-methylpropyl)-4-(2-methylpyrrolidine-1-carbonyl)thiazole-2-carboxamide] | –
3.8 | – | – | – | 0.015 | C[C@H]1CCCN1C(=O)c1nc(C(=O)N[C@H]2CC[C@@H]2O)sc1-c1cnc(NC(C)(C)C)cc1C(F)F (relative stereo) [Example 404, 5-(6-(tert-Butylamino)-4-(difluoromethyl)pyridin-3-yl)-N-((1S*,2S*)-2-hydroxycyclobutyl)-4-((S)-2-methylpyrrolidine-1-carbonyl)thiazole-2-carboxamide] | inhibition at 0.3 µM ([2]; at 0.3 μM compound concentration, read-out: RORγt (FL) Reporter Assay B or C, % inhibition): 98%
3.4 | 122* % | 0.069 | – | – | CC[C@H](Nc1cc(C(F)F)c(-c2sc(C(=O)NC3CCS(=O)(=O)CC3)nc2C(=O)N2CCC[C@@H]2C)cn1)C(F)(F)F [Example 232, 5-(4-(Difluoromethyl)-6-(((S)-1,1,1-trifluorobutan-2-yl)amino)pyridin-3-yl)-N-(1,1-dioxidotetrahydro-2H-thiopyran-4-yl)-4-((S)-2-methylpyrrolidine-1-carbonyl)thiazole-2-carboxamide] | –
1.6 | 98* % | 0.026 | – | – | CC[C@H](Nc1cc(C(F)F)c(-c2sc(C(=O)N[C@H](C)C(C)(C)O)nc2C(=O)N2CC(F)(F)C[C@@H]2C)cn1)C(F)(F)F [Example 245, 4-[(2S)-4,4-Difluoro-2-methyl-pyrrolidine-1-carbonyl]-5-[4-(difluoromethyl)-6-[[(1S)-1-(trifluoromethyl)propyl]amino]-3-pyridyl]-N-[(1R)-2-hydroxy-1,2-dimethyl-propyl]thiazole-2-carboxamide] | –

Compound | Kd [1] [nM] | RORγt (FL) Reporter Assay B or C, % inhibition (value marked *) ([2]; Conditions B or C) | IC50 [2, 3] [µM] | inhibition at 3 µM [2, 4] [%] | IC50 [2, 5] [µM] | other results
C[C@H](CO)NC(=O)c1nc(C(=O)N2C3CCC2CC3)c(-c2cnc(NC(C)(C)C)cc2C(F)F)s1 [Example 427, 4-((1s,4s)-7-Azabicyclo[2.2.1]heptane-7-carbonyl)-5-[6-(tert-butylamino)-4-(difluoromethyl)-3-pyridyl]-N-[(1R)-2-hydroxy-1-methyl-ethyl]thiazole-2-carboxamide] | 3 | – | – | 113 | – | IC50 [2, 6]: 0.003 µM
CC[C@H](Nc1cc(C(F)F)c(-c2sc(C(=O)NCC(C)(C)O)nc2C(=O)N2C3CCC2CC3)cn1)C1CC1 (stereo in doubt) [Example 163, 4-((1s,4s)-7-Azabicyclo[2.2.1]heptane-7-carbonyl)-5-(6-(((S*)-1-cyclopropyl)amino)-4-(difluoromethyl)pyridine-3-yl)-N-(2-hydroxy-2-methylpropyl)thiazole-2-carboxamide] | 14 | 114* % | 0.012 | – | – | –
C[C@H](Nc1cc(C(F)F)c(-c2sc(C(=O)NC3CCC3O)nc2C(=O)N2C3CCC2CC3)cn1)C(F)(F)F (stereo partly drawn) [Example 290, 4-((1s,4s)-7-Azabicyclo[2.2.1]heptane-7-carbonyl)-5-(4-(difluoromethyl)-6-(((S)-1,1,1-trifluoropropan-2-yl)amino)pyridin-3-yl)-N-(-trans-2-hydroxycyclobutyl)thiazole-2-carboxamide] | 6.3 | – | – | 103 | 0.0065 | –
CC(C)(C)Nc1cc(C(F)F)c(-c2sc(C(=O)N[C@H]3CC[C@H](O)C3)nc2C(=O)N2C3CCC2CC3)cn1 [Example 413, 4-((1s,4s)-7-Azabicyclo[2.2.1]heptane-7-carbonyl)-5-[6-(tert-butylamino)-4-(difluoromethyl)-3-pyridyl]-N-[(1S,3S)-3-hydroxycyclopentyl]thiazole-2-carboxamide] | 0.82 | – | – | – | – | IC50 [2, 6]: 0.02 µM; inhibition at 1 µM ([2]; at 1 μM compound concentration, read-out: RORγt (FL) Reporter Assay B or C, % inhibition): 133%
CC[C@H](Nc1cc(C(F)F)c(-c2sc(C(=O)NCC(C)(C)O)nc2C(=O)N2C3CCC2CC3)cn1)C(F)(F)F [Example 89, 4-((1s,4s)-7-Azabicyclo[2.2.1]heptane-7-carbonyl)-5-(4-(difluoromethyl)-6-(((S)-1,1,1-trifluorobutan-2-yl)amino)pyridin-3-yl)-N-(2-hydroxy-2-methylpropyl)thiazole-2-carboxamide] | 5.2 | 100* % | – | – | – | IC50 ([2]; RORγt (FL) Reporter Assay B or C, IC50 (μM), Conditions B or C): 0.024 µM

Reference: patent US10975068B2, “6-aminopyridin-3-yl thiazoles as modulators of RORγT” (Janssen Pharmaceutica NV, priority 2016, dated 2021)
